Measurements as given in ChEMBL document CHEMBL1201862, “PubChem BioAssay data set” (2004).
Calls of active or inactive are those of the source.

How the values were obtained:
NADPH oxidase 1 = NADPH oxidase 1 (Homo sapiens, UniProt Q9Y5S8); format: functional, cell-based;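 also: Cell-based assay with luminescence read-out, IC50 derived from inhibitor dose-response curves; intracellular ROS from endogenous NOX1 in intact HT29 colon cancer cells; potency of inhibitors that lower the ROS luminescence signal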
NADPH oxidase 1, sequence (Q9Y5S8 whole entry): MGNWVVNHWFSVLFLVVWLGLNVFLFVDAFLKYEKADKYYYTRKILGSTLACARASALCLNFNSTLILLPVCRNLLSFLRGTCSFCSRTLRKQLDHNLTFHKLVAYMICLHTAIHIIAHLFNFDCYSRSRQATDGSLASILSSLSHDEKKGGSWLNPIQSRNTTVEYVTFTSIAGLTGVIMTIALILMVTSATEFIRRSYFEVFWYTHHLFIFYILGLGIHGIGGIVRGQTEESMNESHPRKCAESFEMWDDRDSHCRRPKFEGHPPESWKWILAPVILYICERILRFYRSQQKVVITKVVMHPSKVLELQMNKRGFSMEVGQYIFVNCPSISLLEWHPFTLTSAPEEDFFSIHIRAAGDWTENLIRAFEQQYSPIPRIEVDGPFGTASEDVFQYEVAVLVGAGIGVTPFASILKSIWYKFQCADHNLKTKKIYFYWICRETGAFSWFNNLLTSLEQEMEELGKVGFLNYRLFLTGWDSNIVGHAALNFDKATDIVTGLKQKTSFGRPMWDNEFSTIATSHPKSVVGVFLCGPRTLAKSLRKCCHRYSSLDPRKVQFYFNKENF

[1] = M. tuberculosis H37Rv growth inhibitors, H37Rv strain (AID 1626); format: functional
[2] = nonselective inhibitors of cellular cAMP signaling, dose response, counter-screen for MC4R biased antagonist project, cell-based, TR-FRET cAMP detection (AID 602305); format: functional;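 also: U2OS cells stimulated with forskolin near its EC80 as the cAMP inducer; potency is for inhibition of forskolin-stimulated cAMP signaling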
Aminopeptidase N = target: T1, Aminopeptidase N (Plasmodium falciparum FcB1/Columbia, UniProt O96935); test: P. falciparum M1AAP inhibitors, biochemical, fluorogenic H-Leu-NHMec substrate, 1536-well (AID 1445); parameters: species or system Plasmodium falciparum 3D7, 3D7
T1 sequence (O96935 whole entry): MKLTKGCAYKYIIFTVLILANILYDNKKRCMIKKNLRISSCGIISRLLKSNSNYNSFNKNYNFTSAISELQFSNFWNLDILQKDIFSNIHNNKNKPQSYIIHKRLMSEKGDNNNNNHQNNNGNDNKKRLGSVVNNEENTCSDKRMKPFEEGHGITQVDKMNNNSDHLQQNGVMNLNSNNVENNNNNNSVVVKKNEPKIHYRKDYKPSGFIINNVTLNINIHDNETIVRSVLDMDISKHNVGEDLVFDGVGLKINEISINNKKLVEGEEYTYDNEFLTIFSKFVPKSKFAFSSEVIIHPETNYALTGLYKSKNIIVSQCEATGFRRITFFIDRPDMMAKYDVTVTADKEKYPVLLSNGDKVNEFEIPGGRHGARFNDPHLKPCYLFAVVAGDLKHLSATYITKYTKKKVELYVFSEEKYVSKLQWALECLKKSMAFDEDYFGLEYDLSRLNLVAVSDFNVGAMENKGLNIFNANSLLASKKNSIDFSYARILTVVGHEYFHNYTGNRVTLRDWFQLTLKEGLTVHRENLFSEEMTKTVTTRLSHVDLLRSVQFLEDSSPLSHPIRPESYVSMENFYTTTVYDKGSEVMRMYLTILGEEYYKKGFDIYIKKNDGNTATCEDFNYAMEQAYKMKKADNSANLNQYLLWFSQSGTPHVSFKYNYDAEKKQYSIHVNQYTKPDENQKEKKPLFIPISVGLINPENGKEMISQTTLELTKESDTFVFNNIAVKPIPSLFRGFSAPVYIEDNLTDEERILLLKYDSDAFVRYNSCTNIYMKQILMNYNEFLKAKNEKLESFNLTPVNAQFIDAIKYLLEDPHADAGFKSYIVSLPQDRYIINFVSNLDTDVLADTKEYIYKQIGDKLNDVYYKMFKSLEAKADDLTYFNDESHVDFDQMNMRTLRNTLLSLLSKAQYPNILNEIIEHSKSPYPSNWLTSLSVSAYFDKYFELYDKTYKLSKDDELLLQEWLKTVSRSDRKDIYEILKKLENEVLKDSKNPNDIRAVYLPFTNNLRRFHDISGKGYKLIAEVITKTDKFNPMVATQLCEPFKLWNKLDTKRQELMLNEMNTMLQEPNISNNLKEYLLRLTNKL

[3] = inhibitors of Bluetongue virus cytopathic effect, confirmation, arbovirus, BSR cells (AID 1250); format: functional;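 also: protection from viral cytopathic effect measured as cell viability by ATP luminescence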
Melanocortin receptor 4 = Melanocortin receptor 4 (Homo sapiens, UniProt P32245); test: MC4R antagonist potency on cAMP, dose response, cell-based, TR-FRET, biased antagonists (AID 602298); format: functional;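 also: antagonist potency against agonist-stimulated cAMP production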
Melanocortin receptor 4, sequence (P32245 whole entry): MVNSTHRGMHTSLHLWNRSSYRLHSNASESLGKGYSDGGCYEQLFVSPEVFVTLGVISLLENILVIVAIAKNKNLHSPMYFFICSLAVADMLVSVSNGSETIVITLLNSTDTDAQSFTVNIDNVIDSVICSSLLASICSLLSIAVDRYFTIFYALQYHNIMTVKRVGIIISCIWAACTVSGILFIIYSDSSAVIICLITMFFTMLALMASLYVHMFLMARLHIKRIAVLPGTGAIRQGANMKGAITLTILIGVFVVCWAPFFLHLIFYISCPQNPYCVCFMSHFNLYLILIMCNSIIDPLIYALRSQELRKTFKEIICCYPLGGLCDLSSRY

[4] = target: Inward rectifier potassium channel 2 (Mus musculus, UniProt P35561); test: Manual electrophysiological patch clamp assay for SAR compounds that inhibit/block inward-rectifying potassium ion channel Kir2.1. [Related pubchem assays: 1843 (Summary assay for Kir2.1 inhibitor assays.), 1672 (Primary HTS of 305616 compounds where 2592 were identified as active.)]; format: functional
Inward rectifier potassium channel 2, sequence (P35561 whole entry): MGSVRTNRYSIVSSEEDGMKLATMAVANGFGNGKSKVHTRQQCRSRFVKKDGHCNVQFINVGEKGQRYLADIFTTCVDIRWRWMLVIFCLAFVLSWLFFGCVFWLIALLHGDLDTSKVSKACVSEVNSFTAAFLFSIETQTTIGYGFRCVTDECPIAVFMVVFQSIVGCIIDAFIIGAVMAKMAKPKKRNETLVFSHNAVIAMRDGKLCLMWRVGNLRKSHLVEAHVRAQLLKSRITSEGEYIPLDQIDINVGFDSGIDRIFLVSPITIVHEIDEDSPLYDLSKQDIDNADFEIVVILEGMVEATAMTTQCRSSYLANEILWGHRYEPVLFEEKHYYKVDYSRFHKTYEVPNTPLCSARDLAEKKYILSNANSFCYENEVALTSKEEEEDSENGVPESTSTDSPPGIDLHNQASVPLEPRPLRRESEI

[5] = inhibitors of intracellular T. cruzi replication, confirmation, NIH3T3 host cells, beta-gal luminescence (AID 2044); format: functional, cell-based;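 also: intracellular parasites grown in NIH/3T3 mouse fibroblasts as host cells; luminescent beta-galactosidase reporter signal from transgenic T. cruzi replicating inside host cells; inhibitors lower the luminescence signal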
[6] = cytotoxicity toward NIH3T3 fibroblasts, dose response, counter-screen, cell-based, ATP luminescence, mouse fibroblasts (AID 2010); format: functional;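 also: cells exposed to compound for about 90 hours before reading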
INS1 = test: beta cell apoptosis inhibitors, cytokine rescue, dose response, luminescence, retest (AID 449756); format: functional, cell-based; conditions: Rattus norvegicus;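 also: cell death triggered by IL-1 beta plus TNF-alpha plus IFN-gamma mixture; protective hits raise ATP signal compared with cytokine alone wells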
Protein Wnt-3a = Protein Wnt-3a (Mus musculus, UniProt P27467); test: Wnt3a-driven reporter signaling inhibition, dose response, selectivity assay for Gli-SUFU antagonist project, Wnt-LIGHT cells, luminescence (AID 651570); format: functional; conditions: read-out: IC50_Mean;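 also: Wnt-LIGHT reporter cells stimulated with conditioned medium from Wnt3a-producing cells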
Protein Wnt-3a, sequence (P27467 whole entry): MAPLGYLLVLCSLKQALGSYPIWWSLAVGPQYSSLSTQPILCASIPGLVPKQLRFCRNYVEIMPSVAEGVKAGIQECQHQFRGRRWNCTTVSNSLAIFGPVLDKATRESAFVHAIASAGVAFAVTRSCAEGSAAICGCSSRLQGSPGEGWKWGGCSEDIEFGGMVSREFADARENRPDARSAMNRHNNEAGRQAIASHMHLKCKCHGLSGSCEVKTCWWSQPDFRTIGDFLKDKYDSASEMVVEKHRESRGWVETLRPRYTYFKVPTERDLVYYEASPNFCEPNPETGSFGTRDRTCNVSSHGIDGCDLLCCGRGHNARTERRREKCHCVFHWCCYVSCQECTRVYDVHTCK

cells = format: functional, cell-based; conditions: HEK-CNG
[7] = target: T2, Neuropeptide Y receptor type 1 (Homo sapiens, UniProt P25929); test: NPY-Y1 receptor antagonist potency, dose response, cell-based (AID 1277); format: functional
T2 sequence (P25929 whole entry): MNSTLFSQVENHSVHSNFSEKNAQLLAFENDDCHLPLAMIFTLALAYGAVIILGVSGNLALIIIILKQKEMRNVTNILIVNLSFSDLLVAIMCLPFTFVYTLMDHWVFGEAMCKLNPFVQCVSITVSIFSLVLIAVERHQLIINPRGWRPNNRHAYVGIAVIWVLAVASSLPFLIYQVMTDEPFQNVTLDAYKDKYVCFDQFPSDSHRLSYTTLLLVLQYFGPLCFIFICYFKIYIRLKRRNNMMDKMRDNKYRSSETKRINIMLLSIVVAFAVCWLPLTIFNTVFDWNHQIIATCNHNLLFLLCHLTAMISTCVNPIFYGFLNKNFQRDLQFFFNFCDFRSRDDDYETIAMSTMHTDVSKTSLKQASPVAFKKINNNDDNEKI

[8] = cytotoxicity in HEK-293T cells, dose response, cytotoxicity control for BCR NF-kB inhibitor project, luminescence, B-cell screen hits (AID 489021); format: functional, cell-based;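 also: HEK-293T cells carrying an NF-kB luciferase reporter; cells exposed to compound for about 14 hours before viability readout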
Galanin receptor type 3 = target: T3, Galanin receptor type 3 (Homo sapiens, UniProt O60755); test: Fluorescence-based cell-based primary high throughput dose response assay to identify antagonists of the Galanin Receptor 3 (GalR3).; format: functional
T3 sequence (O60755 whole entry): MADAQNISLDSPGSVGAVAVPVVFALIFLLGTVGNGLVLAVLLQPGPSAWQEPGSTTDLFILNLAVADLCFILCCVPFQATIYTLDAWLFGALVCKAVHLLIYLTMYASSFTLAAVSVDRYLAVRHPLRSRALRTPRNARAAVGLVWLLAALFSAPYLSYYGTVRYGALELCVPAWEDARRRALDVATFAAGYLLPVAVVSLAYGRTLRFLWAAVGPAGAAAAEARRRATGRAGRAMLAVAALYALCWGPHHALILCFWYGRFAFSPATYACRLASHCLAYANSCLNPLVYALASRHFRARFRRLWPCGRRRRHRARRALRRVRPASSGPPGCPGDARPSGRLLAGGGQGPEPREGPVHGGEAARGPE

[9] = target: T4, Neuropeptide Y receptor type 2 (Homo sapiens, UniProt P49146); test: NPY-Y2 antagonist potency, selectivity check, dose response, counter-screen for NPY-Y1 antagonist project, cell-based (AID 1278); format: functional
T4 sequence (P49146 whole entry): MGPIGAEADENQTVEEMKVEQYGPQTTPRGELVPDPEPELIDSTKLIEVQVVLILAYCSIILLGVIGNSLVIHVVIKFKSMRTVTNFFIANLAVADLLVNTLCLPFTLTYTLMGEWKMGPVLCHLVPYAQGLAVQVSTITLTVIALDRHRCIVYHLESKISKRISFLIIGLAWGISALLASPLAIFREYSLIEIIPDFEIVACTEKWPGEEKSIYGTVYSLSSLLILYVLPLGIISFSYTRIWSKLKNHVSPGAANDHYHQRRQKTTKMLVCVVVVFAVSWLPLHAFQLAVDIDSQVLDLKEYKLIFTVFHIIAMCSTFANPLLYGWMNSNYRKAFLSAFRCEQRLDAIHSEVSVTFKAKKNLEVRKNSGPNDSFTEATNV

[10] = NIH-3T3 fibroblast cytotoxicity, dose response, cytotoxicity control, cell-based, fluorescence, Alamar Blue, secondary assay (AID 2327); format: functional;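 also: NIH-3T3 mouse fibroblasts cultured with fluconazole at 8 µg/mL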

Q: For `CC(O)c1ccc2c(c1)Nc1ccccc1S2` (configuration not stated), which IC50 (NADPH oxidase 1) is on record?
A: Its IC50 is 0.363 µM (active).

Q: Which IC50 [1] does the source give for `CCOc1ccc2nc(NC(=O)CSc3nc(O)c(C#N)c(-c4ccccc4)n3)sc2c1` here?
A: Its IC50 is > 100 µM (active).

Q: And the IC50 [2]?
A: Its IC50 is > 64.6 µM (inactive).

Q: And the IC50 (Aminopeptidase N)?
A: Its IC50 is 24.1 µM (active).

Q: What about the IC50 [3] of the same molecule?
A: The IC50 was 37.9 µM (active).

Q: What about the IC50 (Melanocortin receptor 4) of the same molecule?
A: The IC50 was > 64.6 µM (inactive).

Q: For `COc1ccc(CNCc2ccc(OC(F)(F)F)cc2)cc1`, which IC50 [4] is on record?
A: The IC50 was 1.64 µM (active).

Q: Which results are given for `COc1ccc(-[n+]2c(-c3ccc(Cl)cc3)cn3c2CCc2ccccc2-3)cc1`?
A: EC50 [5]: 0.24 µM (active); EC50 [6]: > 60 µM (not active); AC50 (INS1): 2.08 µM (active); IC50 (Protein Wnt-3a): 25.6 µM (inactive); EC50 (cells): > 29.9 µM (inactive); IC50 [7]: 7.36 µM (active); IC50 [8]: > 80 µM (inactive); IC50 (Galanin receptor type 3): 5.02 µM (active); IC50 [9]: 10.3 µM (not active); EC50 [10]: > 150 µM (inactive)
